Results reported in patent US10287269B2, “Pyrazolyl pyrimidinone compounds as PDE2 inhibitors” (Merck Sharp & Dohme Corp., priority 2015, dated 2019).

The compounds below were run against T1, Rhesus PDE2A3 (Macaca mulatta, UniProt B3VTJ2) (assay: PDE2 fluorescence polarization (IMAP FP) inhibition assay, rhesus enzyme). Settings: Lab A; read-out: Rhesus PDE2 Ki (nM) Lab A.
T1 construct: made in house; host or cells: AD293 cells, transient transfection, pcDNA3.3-TOPO; lysate supernatant used as enzyme
T1 sequence (B3VTJ2 1-941): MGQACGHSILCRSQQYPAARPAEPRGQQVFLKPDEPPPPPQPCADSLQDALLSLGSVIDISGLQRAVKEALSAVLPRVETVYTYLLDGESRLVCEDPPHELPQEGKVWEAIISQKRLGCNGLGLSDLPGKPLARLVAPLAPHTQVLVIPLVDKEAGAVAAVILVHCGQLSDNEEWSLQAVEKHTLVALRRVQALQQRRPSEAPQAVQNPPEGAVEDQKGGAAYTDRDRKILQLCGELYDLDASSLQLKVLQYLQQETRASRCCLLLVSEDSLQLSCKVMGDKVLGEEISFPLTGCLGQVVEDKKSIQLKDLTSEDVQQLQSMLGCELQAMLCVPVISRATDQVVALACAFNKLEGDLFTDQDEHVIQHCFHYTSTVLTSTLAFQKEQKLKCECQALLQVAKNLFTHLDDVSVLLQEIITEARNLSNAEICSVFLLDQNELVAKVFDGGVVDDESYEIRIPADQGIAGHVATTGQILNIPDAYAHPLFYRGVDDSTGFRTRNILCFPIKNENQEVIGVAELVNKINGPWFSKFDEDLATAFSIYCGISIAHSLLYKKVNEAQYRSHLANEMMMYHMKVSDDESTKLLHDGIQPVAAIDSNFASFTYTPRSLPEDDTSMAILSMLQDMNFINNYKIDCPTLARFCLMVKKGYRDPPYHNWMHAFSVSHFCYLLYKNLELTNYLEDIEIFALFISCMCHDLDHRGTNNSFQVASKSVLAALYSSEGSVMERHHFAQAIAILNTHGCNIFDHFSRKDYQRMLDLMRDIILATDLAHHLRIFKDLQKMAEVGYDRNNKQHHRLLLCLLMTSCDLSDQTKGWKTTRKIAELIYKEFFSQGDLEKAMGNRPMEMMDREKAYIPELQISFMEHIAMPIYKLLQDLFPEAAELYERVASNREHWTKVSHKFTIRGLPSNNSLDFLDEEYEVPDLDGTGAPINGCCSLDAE
Assay type: biochemical, rhesus macaque
Procedure: The activity of the compounds in accordance with the present invention as PDE2 inhibitors may be readily determined using a fluorescence polarization (FP) methodology (Huang, W., et al., J. Biomol Screen, 2002, 7: 215).
In a typical experiment the PDE2 inhibitory activity of the compounds of the present invention was determined in accordance with the following experimental method. Rhesus PDE2A3 was amplified from rhesus macaque brain cDNA (Biochain Institute, Hayward, Calif.) using primers based on human PDE2A sequence (accession NM_002599.3) where the forward primer containing a Kozak consensus was 5′-[…]-3′ and the reverse primer was 5′-[…]-3′. Amplification with Easy-A High-Fidelity PCR cloning enzyme (Stratagene, La Jolla, Calif.) was 95° C. for 2 minutes followed by thirty three cycles of 95° C. for 40 seconds, 52° C. for 30 seconds, and 72° C. for 2 minutes 48 seconds. Final extension was 72° C. for 7 minutes. The PCR product was TA cloned into pcDNA3.3-TOPO (Invitrogen, Carlsbad, Calif.) according to standard protocol. A consensus sequence was developed from multiple clones and then deposited into GenBank (EU812167). AD293 cells (Stratagene, La Jolla, Calif.) with 70-80% confluency were transiently transfected with rhesus PDE2A3/pcDNA3.3-TOPO using Lipofectamine 2000 according to manufacturer specifications (Invitrogen, Carlsbad, Calif.). Cells were harvested 48 hours post-transfection and lysed by sonication (setting 3, 10×5 sec pulses) in a buffer containing 20 mM HEPES pH 7.4, 1 mM EDTA and Complete Protease Inhibitor Cocktail Tablets (Roche, Indianapolis, Ind.). Lysate was collected by centrifugation at 75,000×g for 20 minutes at 4° C. and supernatant utilized for evaluation of PDE2 activity. The fluorescence polarization assay for cyclic nucleotide phosphodiesterases was performed using an IMAP® FP kit supplied by Molecular Devices, Sunnyvale, Calif. (product # R8139). […] Assays were performed at room temperature in 384-well microtiter plates with an incubation volume of 20.2 μL. Solutions of test compounds were prepared in DMSO and serially diluted with DMSO to yield 8 μL of each of 10 solutions differing by 3-fold in concentration, at 32 serial dilutions per plate. […] 0% of inhibition is determined by using DMSO (1% final concentrations).
A Labcyte Echo 555 (Labcyte, Sunnyvale, Calif.) is used to dispense 200 nL from each well of the titration plate to the 384 well assay plate. Ten microliters of a solution of enzyme (1/2000 final dilution from aliquots; sufficient to produce 20% substrate conversion) was added to the assay plate. Next 10 uL of a separate solution of the substrate FAM-labeled cAMP (50 nM final concentration product # R7506 from Molecular Devices) and the activator cGMP (1 uM final concentration), prepared in the assay buffer (10 mM Tris HCl, pH 7.2, 10 mM MgCl2, 0.05% NaN3 0.01% Tween-20, and 1 mM DTT) was added to the assay plate and shaken to mix. The reaction is allowed to proceed at room temperature for 60 minutes. A binding solution is then made from the kit components, comprised of 80% Solution A, 20% Solution B and binding reagent at a volume of 1/600 the total binding solution. The enzymatic reaction is stopped by addition of 60 μl, of the binding solution to each well of the assay plates and the plates are sealed and shaken for 30 seconds. The plate was incubated at room temperature for at least one hour prior to determining the fluorescence polarization (FP). The parallel and perpendicular fluorescence of each well of the plate was measured using a Tecan Genios Pro plate reader (Tecan, Switzerland) or Perkin Elmer EnVision™ plate reader (Waltham, Mass.). Fluorescence polarization (mP) was calculated from the parallel (S) and perpendicular (P) fluorescence of each sample well and the analogous values for the median control well, containing only substrate (So and Po), using the following equation: Polarization (mP)=1000*(S/So−P/Po)/(S/So+P/Po).

| Structure (SMILES) | Ki [nM] |
| --- | --- |
| CCc1ccc(C(C)n2cc(-c3cc(=O)[nH]c(C)n3)cn2)c(Cl)c1 (single isomer, unassigned) [Example 100, (S)- or (R)-6-(1-(1-(2-chloro-4-ethylphenyl)ethyl)-1H-pyrazol-4-yl)-2-methylpyrimidin-4(3H)-one] | 384 |
| CCc1ccc(C(C)n2cc(-c3cc(=O)[nH]c(C)n3)cn2)c(F)c1 (single isomer, unassigned) [Example 102, (S)- or (R)-6-(1-(1-(4-ethyl-2-fluorophenyl)ethyl)-1H-pyrazol-4-yl)-2-methylpyrimidin-4(3H)-one] | 212 |
| COCc1ccc(C(C)n2cc(-c3cc(=O)[nH]c(C)n3)cn2)c(Cl)c1 (single isomer, unassigned) [Example 103, (R)- or (S)-6-(1-(1-(2-chloro-4-(methoxymethyl)phenyl)ethyl)-1H-pyrazol-4-yl)-2-methylpyrimidin-4(3H)-one] | 106 |
| COCc1ccc(C(C)n2cc(-c3cc(=O)[nH]c(C)n3)cn2)c(Cl)c1 (single isomer, unassigned) [Example 104, (S)- or (R)-6-(1-(1-(2-chloro-4-(methoxymethyl)phenyl)ethyl)-1H-pyrazol-4-yl)-2-methylpyrimidin-4(3H)-one] | > 2970 |
| Cc1nc(-c2cnn(C(C)c3ccc(C(F)(F)F)cc3C(F)(F)F)c2)cc(=O)[nH]1 (single isomer, unassigned) [Example 144, (R)- or (S)-6-(1-(1-(2,4-bis(trifluoromethyl)phenyl)ethyl)-1H-pyrazol-4-yl)-2-methylpyrimidin-4(3H)-one] | 397 |
| Cc1nc(-c2cnn(C(C)c3ccc(C(F)(F)F)cc3C(F)(F)F)c2)cc(=O)[nH]1 (single isomer, unassigned) [Example 145, (S)- or (R)-6-(1-(1-(2,4-bis(trifluoromethyl)phenyl)ethyl)-1H-pyrazol-4-yl)-2-methylpyrimidin-4(3H)-one] | 6810 |
| Cc1ccc(C(C)n2cc(-c3cc(=O)[nH]c(C)n3)cn2)c(Cl)c1 (single isomer, unassigned) [Example 149, (S)- or (R)-6-(1-(1-(2-chloro-4-methylphenyl)ethyl)-1H-pyrazol-4-yl)-2-methylpyrimidin-4(3H)-one] | 954 |
| Cc1ccc(C(C)n2cc(-c3cc(=O)[nH]c(C)n3)cn2)c(F)c1 (single isomer, unassigned) [Example 150, (R)- or (S)-6-(1-(1-(2-fluoro-4-methylphenyl)ethyl)-1H-pyrazol-4-yl)-2-methylpyrimidin-4(3H)-one] | 695 |
| Cc1ccc(C(C)n2cc(-c3cc(=O)[nH]c(C)n3)cn2)c(F)c1 (single isomer, unassigned) [Example 151, (S)- or (R)-6-(1-(1-(2-fluoro-4-methylphenyl)ethyl)-1H-pyrazol-4-yl)-2-methylpyrimidin-4(3H)-one] | 218 |
| Cc1nc(-n2cc(CN3CCC(C(F)(F)F)CC3)cn2)cc(=O)[nH]1 [Example 32, 2-Methyl-6-(4-((4-(trifluoromethyl)piperidin-1-yl)methyl)-1H-pyrazol-1-yl)pyrimidin-4(3H)-one] | 19300 |

Same assay, conditions: Lab B; read-out: Rhesus PDE2 Ki (nM) Lab B

| Structure (SMILES) | Ki [nM] |
| --- | --- |
| Cc1nc(-c2cnn(C(C)c3ccc(OC(F)(F)F)cc3)c2)cc(=O)[nH]1 (single isomer, unassigned) [Example 128, (S)- or (R)-2-methyl-6-(1-(1-(4-(trifluoromethoxy)phenyl)ethyl)-1H-pyrazol-4-yl)pyrimidin-4(3H)-one] | 588 |
| Cc1nc(-c2cc(C(C)c3ccc(C(F)(F)F)cc3)nn2C)cc(=O)[nH]1 (single isomer, unassigned) [Example 131, (R)- or (S)-2-methyl-6-(1-methyl-3-(1-(4-(trifluoromethyl)phenyl)ethyl)-1H-pyrazol-5-yl)pyrimidin-4(3H)-one] | > 1000 |
| Cc1nc(-c2cc(C(C)c3ccc(C(F)(F)F)cc3)nn2C)cc(=O)[nH]1 (single isomer, unassigned) [Example 132, (S)- or (R)-2-methyl-6-(1-methyl-3-(1-(4-(trifluoromethyl)phenyl)ethyl)-1H-pyrazol-5-yl)pyrimidin-4(3H)-one] | > 1000 |
| CNC(c1ccc(C(F)(F)F)cc1)c1cnn(-c2cc(=O)[nH]c(C)n2)c1 (stereo not shown) [Example 31, 2-Methyl-6-(4-((methylamino)(4-(trifluoromethyl)phenyl)methyl)-1H-pyrazol-1-yl)pyrimidin-4(3H)-one] | 488 |
| Cc1nc(-n2cc(CN3CCC(C(F)(F)F)CC3)cn2)cc(=O)[nH]1 [Example 32, 2-Methyl-6-(4-((4-(trifluoromethyl)piperidin-1-yl)methyl)-1H-pyrazol-1-yl)pyrimidin-4(3H)-one] | 49300 |
| Cc1nc(-n2cc(C(C)c3ccc(C4CCC4)cc3)cn2)cc(=O)[nH]1 (stereo not shown) [Example 38, 6-(4-(1-(4-cyclobutylphenyl)ethyl)-1H-pyrazol-1-yl)-2-methylpyrimidin-4(3H)-one] | 303 |
| COCCc1ccc(C(C)c2cnn(-c3cc(=O)[nH]c(C)n3)c2)cc1 (stereo not shown) [Example 41, 6-(4-(1-(4-(2-methoxyethyl)phenyl)ethyl)-1H-pyrazol-1-yl)-2-methylpyrimidin-4(3H)-one] | 7300 |
| Cc1nc(-n2cc(C(C)c3ccc4c(c3)CCOC4)cn2)cc(=O)[nH]1 (stereo not shown) [Example 42, 6-(4-(1-(isochroman-6-yl)ethyl)-1H-pyrazol-1-yl)-2-methylpyrimidin-4(3H)-one] | 2620 |
| CCCc1ccc(C(C)c2cnn(-c3cc(=O)[nH]c(C)n3)c2)cc1 (stereo not shown) [Example 43, 2-methyl-6-(4-(1-(4-propylphenyl)ethyl)-1H-pyrazol-1-yl)pyrimidin-4(3H)-one] | 313 |
| Cc1nc(-n2cc(C(C)c3ccc(C(C)(C)C)cc3)cn2)cc(=O)[nH]1 (stereo not shown) [Example 45, 6-(4-(1-(4-(tert-butyl)phenyl)ethyl)-1H-pyrazol-1-yl)-2-methylpyrimidin-4(3H)-one] | 411 |
| Cc1nc(-n2cc(C(C)c3ccc4c(c3)COCC4)cn2)cc(=O)[nH]1 (stereo not shown) [Example 46, 6-(4-(1-(isochroman-7-yl)ethyl)-1H-pyrazol-1-yl)-2-methylpyrimidin-4(3H)-one] | 2480 |
| Cc1nc(-n2cc(C(C)c3ccc4c(c3)OCC4(C)C)cn2)cc(=O)[nH]1 (stereo not shown) [Example 47, 6-(4-(1-(3,3-dimethyl-2,3-dihydrobenzofuran-6-yl)ethyl)-1H-pyrazol-1-yl)-2-methylpyrimidin-4(3H)-one] | 1240 |
